Test systems include Micrococcus luteus; Saccharomyces cerevisiae; Staphylococcus aureus; Escherichia coli W160-37; Bacillus subtilis 168.
Common to all, as to experiment: ≥ marks a high value that may be exact or a test limit, other limits are often not marked, values filed in µg/mL are converted to µM
Assay [1] concerns Xanthomonas fragariae Xf349-9A.
Assay [2] deals with Xanthomonas arboricola pv. pruni CFBP 5563.
Assay [3] concerns Erwinia amylovora PMV 6076.
Assay [4] deals with Xanthomonas campestris pv. Vesicatoria 2133-2.
In assay [5] the test system is Pseudomonas syringae pv. actinidiae Psa3700.1.1.
Assay [6] deals with Pseudomonas syringae pv. syringae EPS 94.
Assay [7] deals with Escherichia coli ATCC 25922.
Assay [8] deals with Staphylococcus aureus ATCC 25923.
Assay [9] deals with Pseudomonas aeruginosa ATCC 15692.
Assay [10] has as its system Candida albicans ATCC 20032.
Assay [11] deals with Bacillus subtilis ATCC 6633.
Assay [12] deals with Staphylococcus aureus ATCC 6538.
Assay [13] deals with Escherichia coli ATCC 2592.
Assay [14] relates to Candida albicans ATCC 36232.
Assay [15] deals with Pseudomonas aeruginosa ATCC 9027.
In assay [16] the test system is Pseudomonas aeruginosa ATCC 27853.
Assay [17] concerns Klebsiella pneumoniae ATCC 700603.
The test system of assay [18] is Bacillus subtilis ATCC 23857.
In assay [19] the test system is Escherichia coli DH5alpha.
Assay [20] concerns Acinetobacter baumannii ATCC 19606.
Assay [21] has as its system Staphylococcus aureus NCTC 8325.

≈ marks a conversion by molar mass, not a printed value. Where “and” joins values, the source holds several entries; their conditions need not be identical. Equal entries are not always repeated. Bounds are passed on as bounds.

What is called MIC is the least concentration at which growth counts as inhibited. A low value points to inhibition by little substance.

In the case of `CSCC[C@H](NC(=O)CNC(=O)[C@@H](NC(=O)[C@H](CO)NC(=O)[C@H](Cc1ccccc1)NC(=O)[C@@H](NC(=O)[C@H](Cc1ccccc1)NC(=O)[C@H](Cc1ccc(O)cc1)NC(=O)[C@H](CO)NC(=O)[C@H](CCC(=O)O)NC(=O)[C@@H](N)[C@@H](C)O)C(C)C)C(C)C)C(N)=O` [TESYFVFSVGM], the MIC in [1] is not below 50 µM; in [2], 17.7 µM (≈ 22.4 µg/mL); in assay [3], not below 50 µM; in assay [4], not below 50 µM; in assay [5], 17.7 µM (≈ 22.4 µg/mL); in [6] it was not below 50 µM.

For `CC[C@H](C)[C@H](NC(=O)[C@H](CC(C)C)NC(=O)[C@H](CCCCN)NC(=O)[C@H](CO)NC(=O)[C@H](C)NC(=O)CNC(=O)[C@H](CCCCN)NC(=O)[C@H](CC(C)C)NC(=O)[C@H](C)NC(=O)[C@H](CCSC)NC(=O)[C@H](CCCCN)NC(=O)[C@H](C)NC(=O)[C@H](Cc1ccccc1)NC(=O)[C@@H](NC(=O)CNC(=O)[C@H](Cc1ccccc1)NC(=O)[C@H](CC(C)C)NC(=O)[C@@H](N)CO)[C@@H](C)O)C(=O)N1CCC[C@H]1C(=O)N[C@@H](Cc1cnc[nH]1)C(=O)N[C@@H](CC(C)C)C(=O)N[C@@H](CC(C)C)C(=O)N1CCC[C@H]1C(=O)N[C@@H](CO)C(=O)N[C@@H](CCCN=C(N)N)C(=O)N[C@@H](CCC(N)=O)C(=O)N[C@@H](CCC(N)=O)C(=O)O` [SLFGTFAKMALKGASKLIPHLLPSRQQ], the MIC against Micrococcus luteus was found to be 0.5 µM; in [7], 2.83 µM; in assay [8] it was 1 µM; in assay [9], 5.66 µM; in the assay on Saccharomyces cerevisiae it was 16 µM.

For `CC(C)C[C@@H]1NC(=O)[C@H](CO)NC(=O)[C@H](Cc2ccc(O)cc2)NC(=O)[C@H](CCC(=O)O)NC(=O)[C@H](Cc2ccccc2)NC(=O)[C@H](C)NC(=O)[C@H](Cc2ccccc2)NC(=O)[C@@H]2CSSC[C@@H](C(=O)N[C@H](C(=O)N3CCC[C@H]3C(=O)N[C@@H](CC(N)=O)C(=O)N[C@H](C(=O)N[C@@H](Cc3ccccc3)C(=O)O)[C@@H](C)O)C(C)C)NC(=O)[C@@H]3CSSC[C@H](NC(=O)CNC(=O)[C@H](Cc4c[nH]c5ccccc45)NC(=O)[C@@H](NC(=O)[C@H](C)NC(=O)[C@@H](N)Cc4ccccc4)C(C)C)C(=O)N[C@@H](C)C(=O)N[C@@H](CC(=O)O)C(=O)N[C@@H](Cc4ccc(O)cc4)C(=O)N[C@@H](CCCN=C(N)N)C(=O)NCC(=O)N[C@@H](Cc4ccc(O)cc4)C(=O)N[C@@H](CSSC[C@H](NC(=O)CNC(=O)[C@H](CCCCN)NC(=O)[C@@H]4CCCN4C(=O)CNC1=O)C(=O)N[C@@H]([C@@H](C)O)C(=O)N[C@@H](CCC(=O)O)C(=O)NCC(=O)N[C@@H](Cc1ccc(O)cc1)C(=O)N[C@@H](C(C)C)C(=O)N3)C(=O)N[C@@H](CCCN=C(N)N)C(=O)N[C@@H](C)C(=O)N[C@@H](C)C(=O)N2` [FAVWGCADYRGYCRAACFAFEYSLGPKGCTEGYVCCVPNTF], the MIC in [7] was 35.3 µM (≈ 160 µg/mL); in assay [10] it was not below 44.2 µM; in assay [8], 14.4 µM (≈ 64.9 µg/mL); in assay [11], 29.8 µM (≈ 135 µg/mL).

`CC(C)C[C@H](NC(=O)[C@H](CS)NC(=O)[C@H](CCCCN)NC(=O)[C@H](C)NC(=O)[C@H](C)NC(=O)[C@H](CS)NC(=O)[C@H](C)NC(=O)[C@H](C)NC(=O)[C@@H](N)CCCCN)C(=O)N[C@@H](Cc1c[nH]c2ccccc12)C(=O)N[C@@H](CCCN=C(N)N)C(N)=O` [KAACAAKCLWR]: the minimal inhibitory concentration (MIC) is 41 µM and 81.9 µM in assay [12]; not below 164 µM in [13]; not below 164 µM in [14]; 81.9 µM and 164 µM in assay [15].

As to `CC[C@H](C)[C@H](NC(=O)[C@H](Cc1c[nH]c2ccccc12)NC(=O)[C@H](CCCCN)NC(=O)[C@H](CC(C)C)NC(=O)[C@H](Cc1ccccc1)NC(=O)[C@H](CCCCN)NC(=O)[C@H](CC(C)C)NC(=O)[C@H](CC(C)C)NC(=O)[C@H](CCCCN)NC(=O)[C@@H]1CCCN1)C(=O)NCC(=O)O` [PKLLKFLKWIG], the MIC is 8 µM (≈ 10.7 µg/mL) against Staphylococcus aureus and 31 µM (≈ 41.6 µg/mL) with Escherichia coli W160-37.

In the case of `CC[C@H](C)[C@H](N)C(=O)N[C@@H](CC(C)C)C(=O)NCC(=O)N1CCC[C@H]1C(=O)N[C@H](C(=O)N[C@H](C(=O)N[C@@H](CO)C(=O)N[C@H](C(=O)N[C@H](C(=O)NCC(=O)N[C@@H](CC(N)=O)C(=O)N[C@H](C(=O)N[C@@H](CC(C)C)C(=O)NCC(=O)NCC(=O)N[C@@H](CC(C)C)C(=O)N[C@@H](CC(C)C)C(=O)N[C@@H](CCCCN)C(=O)N[C@@H](CC(N)=O)C(=O)N[C@@H](CC(C)C)C(N)=O)C(C)C)[C@@H](C)CC)[C@@H](C)O)[C@@H](C)CC)C(C)C` [ILGPVISTIGNVLGGLLKNL], the MIC in assay [7] was more than 50.2 µM; in assay [10], not below 50.2 µM; in [8], more than 50.2 µM; in assay [11], not below 50.2 µM.

As for `CC[C@H](C)[C@H](NC(=O)[C@H](CCCCN)NC(=O)[C@H](CCCCN)NC(=O)[C@@H](NC(=O)[C@@H](NC(=O)[C@H](CCCCN)NC(=O)[C@H](CCCCN)NC(=O)[C@@H](NC(=O)[C@@H](NC(=O)[C@H](CCCCN)NC(=O)[C@H](CCCCN)NC(=O)[C@@H](NC(=O)[C@@H](NC(=O)[C@H](CCCCN)NC(=O)[C@H](CCCCN)NC(=O)[C@@H](NC(=O)[C@@H](NC(=O)CN)[C@@H](C)CC)[C@@H](C)CC)[C@@H](C)CC)[C@@H](C)CC)[C@@H](C)CC)[C@@H](C)CC)[C@@H](C)CC)[C@@H](C)CC)C(N)=O` [GIIKKIIKKIIKKIIKKI], the minimum inhibitory concentration (MIC) in [7] was found to be 8 µM (≈ 16.9 µg/mL); in the assay with Bacillus subtilis 168, 0.5 µM (≈ 1.06 µg/mL); in assay [8], 4 µM (≈ 8.47 µg/mL); in [16] it was 4 µM (≈ 8.47 µg/mL); in [17] it was 8 µM (≈ 16.9 µg/mL); in assay [18], 2 µM (≈ 4.24 µg/mL). The MIC turned out to be 2 µM (≈ 4.24 µg/mL) in assay [19] and 4 µM (≈ 8.47 µg/mL) in assay [20].

In the assay on Escherichia coli W160-37, `CC[C@H](C)[C@H](NC(=O)[C@H](CC(C)C)NC(=O)[C@H](C)NC(=O)[C@H](CC(C)C)NC(=O)[C@@H](N)Cc1ccccc1)C(=O)N[C@@H](CC(C)C)C(=O)N[C@@H](CCCN=C(N)N)C(=O)N[C@@H](CCCCN)C(=O)N[C@H](C(=O)N[C@H](C(=O)N[C@H](C(=O)N[C@@H](C)C(=O)N[C@@H](CC(C)C)C(N)=O)[C@@H](C)O)C(C)C)[C@@H](C)CC` [FLALILRKIVTAL] displayed an MIC not below 40.8 µM.

Consider `CC[C@H](C)[C@H](N)C(=O)N[C@@H](CC(C)C)C(=O)N1CCC[C@H]1C(=O)N[C@@H](CC(C)C)C(=O)N[C@@H](CCCCN)C(=O)N[C@@H](CC(C)C)C(=O)N1CCC[C@H]1C(=O)N[C@@H](Cc1c[nH]c2ccccc12)C(=O)N[C@@H](CC(C)C)C(=O)N1CCC[C@H]1C(=O)N[C@@H](CC(C)C)C(=O)N[C@@H](CCCN=C(N)N)C(=O)N[C@@H](CCCN=C(N)N)C(N)=O` [ILPLKLPWLPLRR], for which the figures for the MIC in the assay on Staphylococcus aureus and in the assay with Escherichia coli W160-37 were 6.19 µM (≈ 9.99 µg/mL) and 12.4 µM (≈ 20 µg/mL), respectively.

Turning to `CC[C@H](C)[C@H](NC(=O)[C@H](C)NC(=O)[C@H](CCC(=O)O)NC(=O)[C@H](CC(C)C)NC(=O)CNC(=O)CNC(=O)[C@H](CCCCN)NC(=O)[C@H](C)NC(=O)[C@H](Cc1ccccc1)NC(=O)[C@H](CCCCN)NC(=O)[C@H](CCCCN)NC(=O)[C@H](CC(C)C)NC(=O)CNC(=O)CNC(=O)[C@H](CC(C)C)NC(=O)[C@@H](NC(=O)[C@@H](NC(=O)[C@H](CO)NC(=O)[C@H](Cc1c[nH]c2ccccc12)NC(=O)[C@@H](NC(=O)CN)C(C)C)[C@@H](C)O)C(C)C)C(=O)N[C@H](C(=O)N[C@@H](CC(N)=O)C(=O)N1CCC[C@H]1C(=O)N[C@@H](CCCCN)C(=O)O)C(C)C` [GVWSTVLGGLKKFAKGGLEAIVNPK], the minimal inhibitory concentration (MIC) is 0.5 µM (≈ 1.29 µg/mL) with Micrococcus luteus; not below 100 µM in assay [21]; 5.66 µM (≈ 14.5 µg/mL) in [7]; 45.3 µM (≈ 116 µg/mL) in [8]; not below 32 µM in assay [9]; not below 32 µM in the assay with Saccharomyces cerevisiae.
